Laboratory results: patent US7932262B2 (Novartis AG, priority 2006, dated 2011)

Key:
PC-3 cells = assay: Cell Proliferation Assay (Cell Titer Glo), PC-3 cell line; type: cell-based; settings: Homo sapiens, PC-3, cell proliferation, PC3 cells; read-out: CPEC50 PC3
Summary of the method: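 Cell Titer Glo luminescence, read after fresh medium replaced the dosing medium, gave viability of PC-3 cells plated at 1000 cells/well. Compounds, 1:3 serially diluted in DMSO at 500× and then in medium, were added after 3-5 h adhesion and incubated 3 days at 37° C.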

PC3MM cells = assay: Cell Proliferation Assay (Cell Titer Glo), PC3MM; type: cell-based; settings: cell proliferation, PC3MM cells; read-out: CPEC50 PC3MM
Summary of the method: (§1)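 Following a 3-day compound exposure (37° C., 5% CO2) of A2780 or PC3MM cells plated at 1000 per well, viability was measured by Cell Titer Glo luminescence in fresh medium, read 10 min after reagent addition.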

PDK1 kinase = molecular target: T1, PDK1 kinase (Homo sapiens, UniProt O15530); assay: PDK1 Kinase Alpha Screen Assay; type: biochemical; settings: PDK1 Kinase Alpha Screen Assay; read-out: PDK1 IC50
T1 sequence (O15530 1-556): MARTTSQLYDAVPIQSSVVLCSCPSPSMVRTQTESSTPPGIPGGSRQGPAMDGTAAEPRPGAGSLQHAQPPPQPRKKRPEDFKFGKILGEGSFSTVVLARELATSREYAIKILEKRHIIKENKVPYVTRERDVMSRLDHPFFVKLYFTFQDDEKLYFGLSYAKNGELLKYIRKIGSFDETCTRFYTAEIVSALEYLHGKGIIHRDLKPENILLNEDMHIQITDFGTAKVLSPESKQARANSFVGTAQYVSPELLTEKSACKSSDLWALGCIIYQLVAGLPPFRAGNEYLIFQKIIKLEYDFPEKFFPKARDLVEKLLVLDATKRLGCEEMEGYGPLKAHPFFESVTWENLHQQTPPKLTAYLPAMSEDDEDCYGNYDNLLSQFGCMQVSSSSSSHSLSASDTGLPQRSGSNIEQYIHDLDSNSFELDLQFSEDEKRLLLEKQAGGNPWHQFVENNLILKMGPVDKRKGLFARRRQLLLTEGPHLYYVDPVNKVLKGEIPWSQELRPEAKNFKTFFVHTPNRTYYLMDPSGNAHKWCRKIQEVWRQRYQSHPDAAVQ
Summary of the method: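 PDK1, 10 uM ATP, 50 nM biotin-PDK1-4 peptide; 50 mM Tris pH 7.5, 10 mM MgCl2, 0.1% BSA, 0.01% Tween-20, 2 mM DTT, 2.5% DMSO; 3-18 h. EDTA stop; AlphaScreen, phospho-Ser/Thr antibody, overnight RT.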

A2780 cells = assay: Cell Proliferation Assay (Cell Titer Glo), A2780; type: cell-based; settings: Homo sapiens; cell proliferation, A2780 cells; read-out: CPEC50 A2780
Summary of the method: as §1

| EC50 (PC-3 cells) [µM] | EC50 (PC3MM cells) [µM] | IC50 (PDK1 kinase) [µM] | EC50 (A2780 cells) [µM] | SMILES |
| --- | --- | --- | --- | --- |
| < 5 | < 5 | < 5 | < 5 | NS(=O)(=O)c1ccc(Nc2ncc3cccc(OC4CCNCC4)c3n2)cc1 [Compound 718, 4-(8-(piperidin-4-yloxy)quinazolin-2-ylamino)benzenesulfonamide] |
|  | < 5 | < 5 | < 5 | COc1ncc(-c2ccc3cnc(Nc4ccc(S(N)(=O)=O)cc4)nc3c2)cn1 [Compound 814, 4-(7-(2-methoxypyrimidin-5-yl)quinazolin-2-ylamino)benzenesulfonamide] |
|  | < 5 | < 5 | < 5 | NS(=O)(=O)c1ccc(Nc2ncc3ccc(Nc4ccc5cn[nH]c5c4)cc3n2)cc1 [Compound 815, 4-(7-(1H-indazol-6-ylamino)quinazolin-2-ylamino)benzenesulfonamide] |
|  | < 5 | < 5 | < 5 | CCN1CCC(Oc2cccc3cnc(Nc4ccc(S(N)(=O)=O)cc4)nc23)CC1 [Compound 817, 4-(8-(1-ethylpiperidin-4-yloxy)quinazolin-2-ylamino)benzenesulfonamide] |
|  | < 5 | < 5 | < 5 | CC(C)N1CC(Oc2cccc3cnc(Nc4ccc(S(N)(=O)=O)cc4)nc23)C1 [Compound 818, 4-(8-(1-isopropylazetidin-3-yloxy)quinazolin-2-ylamino)benzenesulfonamide] |
|  | < 5 | < 5 | 5 to 10 | NS(=O)(=O)c1ccc(Nc2ncc3cccc(OC4CNC4)c3n2)cc1 [Compound 819, 4-(8-(azetidin-3-yloxy)quinazolin-2-ylamino)benzenesulfonamide] |
|  | < 5 | < 5 | < 5 | NS(=O)(=O)c1ccc(Nc2ncc3ccc(C(=O)N4CCCC4)cc3n2)cc1 [Compound 820, 4-(7-(pyrrolidine-1-carbonyl)quinazolin-2-ylamino)benzenesulfonamide] |
|  | < 5 | < 5 | < 5 | Nc1ccc(-c2cccc3cnc(Nc4ccc(S(N)(=O)=O)cc4)nc23)cn1 [Compound 821, 4-(8-(6-aminopyridin-3-yl)quinazolin-2-ylamino)benzenesulfonamide] |
|  | < 5 | < 5 | < 5 | CN1CCN(C(=O)c2cccc(-c3cccc4cnc(Nc5ccc(S(N)(=O)=O)cc5)nc34)c2)CC1 [Compound 822, 4-(8-(3-(4-methylpiperazine-1-carbonyl)phenyl)quinazolin-2-ylamino)benzenesulfonamide] |
|  | < 5 | < 5 | < 5 | Nc1ncc(-c2cccc3cnc(Nc4ccc(S(N)(=O)=O)cc4)nc23)cn1 [Compound 823, 4-(8-(2-aminopyrimidin-5-yl)quinazolin-2-ylamino)benzenesulfonamide] |
|  | < 5 | < 5 | < 5 | CN1CCN(C(=O)c2ccc(-c3cccc4cnc(Nc5ccc(S(N)(=O)=O)cc5)nc34)cc2)CC1 [Compound 824, 4-(8-(4-(4-methylpiperazine-1-carbonyl)phenyl)quinazolin-2-ylamino)benzenesulfonamide] |
|  | < 5 | < 5 | < 5 | NS(=O)(=O)c1ccc(Nc2ncc3cccc(-c4ccc(N5CCOCC5)nc4)c3n2)cc1 [Compound 826, 4-(8-(6-morpholinopyridin-3-yl)quinazolin-2-ylamino)benzenesulfonamide] |
|  | < 5 | < 5 | < 5 | NS(=O)(=O)c1ccc(Nc2ncc3cccc(-c4ccc(N5CCNC(=O)C5)nc4)c3n2)cc1 [Compound 828, 4-(8-(6-(3-oxopiperazin-1-yl)pyridin-3-yl)quinazolin-2-ylamino)benzenesulfonamide] |
|  | < 5 | < 5 | < 5 | CC(=O)NCCNc1ccc(-c2cccc3cnc(Nc4ccc(S(N)(=O)=O)cc4)nc23)cn1 [Compound 829, N-(2-(5-(2-(4-sulfamoylphenylamino)quinazolin-8-yl)pyridin-2-ylamino)ethyl)acetamide] |
|  | < 5 | < 5 | < 5 | CC(C)Nc1ccc(-c2cccc3cnc(Nc4ccc(S(N)(=O)=O)cc4)nc23)cn1 [Compound 831, 4-(8-(6-(isopropylamino)pyridin-3-yl)quinazolin-2-ylamino)benzenesulfonamide] |
|  | < 5 | < 5 | < 5 | NS(=O)(=O)c1ccc(Nc2ncc3cccc(-c4ccc(N5CCCC5)nc4)c3n2)cc1 [Compound 832, 4-(8-(6-(pyrrolidin-1-yl)pyridin-3-yl)quinazolin-2-ylamino)benzenesulfonamide] |
|  | < 5 | < 5 | 5 to 10 | NS(=O)(=O)c1ccc(Nc2ncc3cccc(-c4cc[nH]c(=O)c4)c3n2)cc1 [Compound 833, 4-(8-(2-oxo-1,2-dihydropyridin-4-yl)quinazolin-2-ylamino)benzenesulfonamide] |
|  | < 5 | < 5 | < 5 | NS(=O)(=O)c1ccc(Nc2ncc3cccc(-c4ccc(N5CCS(=O)(=O)CC5)nc4)c3n2)cc1 [Compound 834] |
|  | < 5 | < 5 | < 5 | CC(C)CN1CC(Oc2cccc3cnc(Nc4ccc(S(N)(=O)=O)cc4)nc23)C1 [Compound 835, 4-(8-(1-isobutylazetidin-3-yloxy)quinazolin-2-ylamino)benzenesulfonamide] |
|  | < 5 | < 5 | < 5 | NS(=O)(=O)c1ccc(Nc2ncc3ccc(-c4ccc(F)nc4F)cc3n2)cc1 [Compound 836, 4-(7-(2,6-difluoropyridin-3-yl)quinazolin-2-ylamino)benzenesulfonamide] |
|  | < 5 | < 5 | < 5 | NS(=O)(=O)c1ccc(Nc2ncc3ccc(-c4ccc(F)nc4)cc3n2)cc1 [Compound 837, 4-(7-(6-fluoropyridin-3-yl)quinazolin-2-ylamino)benzenesulfonamide] |
|  | < 5 | < 5 | < 5 | Cc1ccc(Cl)cc1NC(=O)c1ccc2cnc(Nc3ccc(S(N)(=O)=O)cc3)nc2c1 [Compound 838, N-(5-chloro-2-metlhylphenyl)-2-(4-sulfamoylphenylamino)quinazoline-7-carboxamide] |
|  | < 5 | < 5 | < 5 | Cc1csc(NC(=O)c2ccc3cnc(Nc4ccc(S(N)(=O)=O)cc4)nc3c2)c1C(N)=O [Compound 839, N-(3-carbamoyl-4-methylthiophen-2-yl)-2-(4-sulfamoylphenylamino)quinazoline-7-carboxamide] |
|  | < 5 | < 5 | 5 to 10 | NS(=O)(=O)c1ccc(Nc2ncc3ccc(-c4ccc5c(c4)CCNC5=O)cc3n2)cc1 [Compound 840, 4-(7-(1-oxo-1,2,3,4-tetrahydroisoquinolin-6-yl)quinazolin-2-ylamino)benzenesulfonamide] |
|  | < 5 | < 5 | < 5 | CCN1CC(Oc2cccc3cnc(Nc4ccc(S(N)(=O)=O)cc4)nc23)C1 [Compound 841, 4-(8-(1-ethylazetidin-3-yloxy)quinazolin-2-ylamino)benzenesulfonamide] |
|  | < 5 | < 5 | 5 to 10 | Cc1ccc(C(N)=O)c(NC(=O)c2ccc3cnc(Nc4ccc(S(N)(=O)=O)cc4)nc3c2)c1 [Compound 842, N-(2-carbamoyl-5-methylphenyl)-2-(4-sulfamoylphenylamino)quinazoline-7-carboxamide] |
|  | < 5 | < 5 | 5 to 10 | NS(=O)(=O)c1ccc(Nc2ncc3ccc(-c4cnc(=O)[nH]c4)cc3n2)cc1 [Compound 844, 4-(7-(2-oxo-1,2-dihydropyrimidin-5-yl)quinazolin-2-ylamino)benzenesulfonamide] |
|  | < 5 | < 5 | < 5 | NS(=O)(=O)c1ccc(Nc2ncc3ccc(Br)c(OC4CCNCC4)c3n2)cc1 [Compound 845, 4-(7-bromo-8-(piperidin-4-yloxy)quinazolin-2-ylamino)benzenesulfonamide] |
|  | < 5 | < 5 | < 5 | Cc1nn(C)c(C)c1-c1ccc2cnc(Nc3ccc(S(N)(=O)=O)cc3)nc2c1 [Compound 848, 4-(7-(1,3,5-trimethyl-1H-pyrazol-4-yl)quinazolin-2-ylamino)benzenesulfonamide] |
